Legend:
[1] = molecular target: Diacylglycerol kinase alpha (Homo sapiens, UniProt P23743); test: Biochemical DGK IC50 Assay
Experimental: (§1) Enzymatic reactions of DGKζ, DGKα and DGKδ were performed using ADP-Glo assay with lipid micelle substrate. […] Full length DGKα (D21-10BG, SignalChem) and full length DGKδ (D23-10G, SignalChem) were purchased. […] The resulted product was resuspended in buffer containing 25 mM HEPES pH 7.0, 0.5 mM EDTA and 160 mM Octyl β-D glucopyranoside by vigorous mixing and ultrasonic (IID, Scientz).Final concentration in reaction Enzyme Enzyme (nM) ATP (μM) DAG (μM)DGKα 7.5 140 80DGKδ 10 140 80DGKζ 0.5 140 80The inhibition activities testing for the compound disclosed herein were carried out at room temperature in assay buffer containing 50 mM HEPES, 10 mM MgCl2, 0.01% BSA, 0.1 mM Na3VO4, 0.005% Tween-20 and 0.01 mM CaCl2. […] 3 μL 2× enzyme solution was added to wells. […] After 1 hour reaction, 5 μL ADP-Glo reagent (Promga V9101) was added and incubated for 40 minutes. 10 μL Kinase Detection reagent was added and incubated for 30 minutes. Luminescence was measured on a microplate reader (PHERAstar FSX, BMG labtech). The IC50s are calculated based on inhibition of enzyme activity in the presence of increasing concentrations of compounds.

[2] = molecular target: Diacylglycerol kinase zeta (Homo sapiens, UniProt Q13574); test: Biochemical DGK IC50 Assay
Experimental: as §1

Sequence of Diacylglycerol kinase alpha (P23743 whole entry): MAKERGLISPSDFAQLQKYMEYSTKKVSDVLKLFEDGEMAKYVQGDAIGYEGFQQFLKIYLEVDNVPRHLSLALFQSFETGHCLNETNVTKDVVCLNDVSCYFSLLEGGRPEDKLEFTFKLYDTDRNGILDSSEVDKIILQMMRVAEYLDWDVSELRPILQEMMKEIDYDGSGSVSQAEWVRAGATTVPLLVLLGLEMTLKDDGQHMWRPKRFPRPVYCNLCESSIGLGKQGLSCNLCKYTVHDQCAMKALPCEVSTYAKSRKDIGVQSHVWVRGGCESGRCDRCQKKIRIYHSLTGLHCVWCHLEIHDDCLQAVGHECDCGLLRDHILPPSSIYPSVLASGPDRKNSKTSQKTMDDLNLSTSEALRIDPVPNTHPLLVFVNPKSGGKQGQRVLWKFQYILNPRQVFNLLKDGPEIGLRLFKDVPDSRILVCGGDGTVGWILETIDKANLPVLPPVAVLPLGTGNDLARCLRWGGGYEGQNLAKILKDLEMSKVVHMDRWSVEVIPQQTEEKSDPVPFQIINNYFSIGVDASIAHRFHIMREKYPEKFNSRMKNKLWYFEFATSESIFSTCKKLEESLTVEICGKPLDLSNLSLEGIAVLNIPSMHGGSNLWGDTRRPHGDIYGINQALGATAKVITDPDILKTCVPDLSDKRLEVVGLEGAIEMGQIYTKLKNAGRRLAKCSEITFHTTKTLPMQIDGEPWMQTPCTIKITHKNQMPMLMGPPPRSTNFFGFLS
Sequence of Diacylglycerol kinase zeta (Q13574 as listed by the source): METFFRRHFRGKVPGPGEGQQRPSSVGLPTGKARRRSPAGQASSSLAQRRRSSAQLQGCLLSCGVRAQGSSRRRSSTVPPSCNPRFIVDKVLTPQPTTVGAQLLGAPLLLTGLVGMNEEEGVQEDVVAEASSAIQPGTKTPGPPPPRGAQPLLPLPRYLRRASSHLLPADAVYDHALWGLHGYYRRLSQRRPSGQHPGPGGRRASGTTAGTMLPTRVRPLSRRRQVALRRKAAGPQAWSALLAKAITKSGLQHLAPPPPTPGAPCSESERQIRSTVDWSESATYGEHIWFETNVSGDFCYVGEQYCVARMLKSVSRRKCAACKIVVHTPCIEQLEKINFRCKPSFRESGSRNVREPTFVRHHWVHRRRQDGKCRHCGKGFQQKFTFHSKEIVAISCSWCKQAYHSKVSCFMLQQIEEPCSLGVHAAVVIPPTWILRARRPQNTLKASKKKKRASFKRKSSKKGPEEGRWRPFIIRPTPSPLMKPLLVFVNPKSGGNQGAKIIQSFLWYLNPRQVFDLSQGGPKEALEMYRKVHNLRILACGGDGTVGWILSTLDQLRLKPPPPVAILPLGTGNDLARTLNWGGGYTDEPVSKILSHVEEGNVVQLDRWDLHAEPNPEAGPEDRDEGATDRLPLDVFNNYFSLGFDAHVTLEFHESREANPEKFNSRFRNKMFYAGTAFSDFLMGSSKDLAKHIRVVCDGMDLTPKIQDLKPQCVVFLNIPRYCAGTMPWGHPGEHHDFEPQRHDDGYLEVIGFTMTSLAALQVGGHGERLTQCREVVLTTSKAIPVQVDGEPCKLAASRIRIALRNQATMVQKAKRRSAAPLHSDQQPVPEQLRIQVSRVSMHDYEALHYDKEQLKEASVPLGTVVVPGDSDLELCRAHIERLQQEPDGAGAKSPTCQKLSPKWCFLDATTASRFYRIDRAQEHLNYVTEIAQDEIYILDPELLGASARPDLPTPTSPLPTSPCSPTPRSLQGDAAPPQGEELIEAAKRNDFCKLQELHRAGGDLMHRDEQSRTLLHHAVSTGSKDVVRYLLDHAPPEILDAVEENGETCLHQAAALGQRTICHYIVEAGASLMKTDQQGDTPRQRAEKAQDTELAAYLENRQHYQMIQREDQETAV

Compound	IC50 [1] [µM]	IC50 [2] [µM]
CC(c1ccc2c(n1)OC(C)(C)CO2)N1C[C@H](C)N(c2cc(=O)n(C)c3cn(CC#N)nc23)C[C@H]1C (stereo partly drawn) [2-(7-((2S,5R)-4-(1-(3,3-dimethyl-2,3-dihydro-[1,4]dioxino[2,3-b]pyridin-6-yl)ethyl)-2,5-dimethylpiperazin-1-yl)-4-methyl-5-oxo-4,5-dihydro-2H-pyrazolo[4,3-b]pyridin-2-yl)acetonitrile]	61.5	0.075
C[C@@H]1CC(c2cc(=O)n(C)c3cc(CC#N)nn23)CCN1[C@H](C)c1ccc2nccnc2c1 (stereo partly drawn) [US20250353858, Compound A33b]	> 10	

From BindingDB's records for patent US20250353858 (BEONE MEDICINES I GMBH, 2025)
